One experiment concerns I/R-injured mouse hearts. Put plainly: Langendorff ischemia/reperfusion injury of isolated mouse hearts, post-conditioning (peptide at reperfusion); infarct size by TTC. On the set-up: species or system mouse (C57BL/6J). Conditions: isolated C57BL6 hearts, peptide 1.47 nmol/L during 60 min reperfusion after 20 min ischemia, Control I/R 37.6±1.3%, Mean±SEM. The procedure: Hearts of C57BL6 mice were freshly isolated and subject to ischemia reperfusion (I/R) injury using a Langendorff perfusion system. Hearts were pre-perfused with Krebs-Henseleit buffer for 40 minutes, and then I/R injury was consistently produced by subjecting the hearts to 20 minutes of normo-thermic ischemia, followed by reperfusion for 60 minutes with or without peptide fragment V1, V2, or V3 at the same molar concentration of 1.47 nmol/L. Sections of hearts were stained with 2,3,5-TTC and infarct area calculated as % of risk area.
Post-conditioning I/R experiments were performed as illustrated in FIG. 4A. Different peptide fragments V1-9aa, V2-10aa, V3-16aa, and V3-11aa were used at the same molar concentration of 1.47 nmol/L. Sections of hearts were stained with 2,3,5-TTC and infarct area calculated as % of risk area.
Male C57BL/6J mice (8-12 weeks old) were obtained from the Charles River Laboratories (Wilmington, Mass., USA). After anesthetized with intraperitoneal pentobarbitone (60 mg/kg), mouse hearts were harvested immediately and the aortas were cannulated with a 20-gauge stainless steel blunt needle and transferred to the Langendorff rig and perfused retrograde instantly with modified Krebs-Henseleit buffer (KHB) […] as previously described. See Bouhidel et al. Front Biosci (Landmark Ed) 2014; 19:566-570, and Zhang et al., J Mol Cell Cardiol. 2010; 48:1060-1070. […] Hearts were then harvested for analyses of infarct size. For post-conditioning treatment with peptide fragments, hearts underwent 40 minutes of KHB perfusion, 20 minutes of global ischemia, and a 60 minute reperfusion with different peptide fragments.
At the end of I/R protocol, hearts were sliced perpendicular to the long-axis of the heart at 1 mm intervals and stained with 1% triphenyl tetrazolium chloride (TTC) in PBS for 10 minutes at room temperature. After washing with PBS once, sections of the hearts will be fixed in 10% formalin overnight. […] Infarct size is expressed as an infarct-to-risk zone ratio (the risk zone is the whole ventricular volume in this global ischemic model).

In experiment [1] the test system is endothelial cell NO production. Put plainly: Endothelial cell nitric oxide production by electron spin resonance (ESR). Conditions: endothelial cells, 37° C., 60 minutes, Mean±SEM. Format: cell-based, bovine. How it is done:
Confluent endothelial cells were incubated with different peptide fragments V1-9aa, V2-10aa, and V3-11aa at the same molar concentration of 1.47 nmol/L at 37° C. for 60 minutes in modified Krebs/HEPEs buffer containing the NO-specific spin trap Fe^2+(DETC)2. Cells were then gently collected for analysis of NO production by using electron spin resonance (ESR).
Confluent endothelial cells were incubated with different combination of peptide fragments V1-9aa alone, V1-9aa+V2-10aa (1:1), V1-9aa+V3-11aa (1:1), and V2-10aa+V3-11aa (1:1) at the same total molar concentration of 1.47 nmol/L at 37° C. for 60 minutes in modified Krebs/HEPEs buffer containing the NO-specific spin trap Fe^2+(DETC)2. Cells were then gently collected for analysis of NO production by using electron spin resonance (ESR).
To further identify the synergistic effects peptide fragments according to the present invention, endothelial cells were treated with different combinations of peptide fragments. The treatment groups were: V1-9aa+V2-10aa group, V1-9aa+V3-11aa group, and V2-10aa+V3-11aa group. The amount of each peptide fragment was 50% of the total amount by molar concentration (or equal volume at the same molar concentration) of peptide fragments in the composition, and the final molar concentration was 1.47 nmol/L. Control group (no peptide treatment) and V1-9aa group (1.47 nmol/L) were used to compare with the combination groups. The results, shown in FIG. 7, indicate that the V1-9aa+V2-10aa group produced more NO than the V1-9aa group (V1-9aa+V2-10aa: 1.90±0.50 fold vs. V1-9aa: 1.42±0.18 fold, p<0.05).
Bovine aortic endothelial cells (BAECs, Cell Systems, Kirkland, Wash., USA) were cultured in media 199 containing 10% fetal bovine serum (FBS) as previously described. See Chalupsky & Cai, PNAS USA 2005; 102:9056-9061; and Nguyen & Cai, PNAS USA 2006; 103:6530-6535.

Where [2] appears, read: single peptide 1.47 nmol/L, ESR (FIG. 6).

Regarding “V1-9aa: SEQ ID NO: 4, residues 304-312 of human netrin-1: CDCRHNTAG (listed as Homo sapiens)”, in the experiment with I/R-injured mouse hearts, the “infarct size (infarct area as % of risk area)” value was determined as 16.8±2.2%. For the same substance, the “NO production, fold vs. control” value in experiment [1] (combination experiment (FIG. 7), 1:1, total 1.47 nmol/L, ESR) came out at 1.42±0.18 fold; in experiment [1] (setting [2]), 1.50±0.09 fold.
Take “V2-10aa: SEQ ID NO: 5, residues 368-377 of human netrin-1: CLNCRHNTAG (listed as Homo sapiens)”: the “infarct size (infarct area as % of risk area)” value in the experiment on I/R-injured mouse hearts came to 18.6±1.7%. Besides, the “NO production, fold vs. control” value in experiment [1] (setting [2]) stood at 1.44±0.08 fold.
On to “V3-11aa: SEQ ID NO: 6, residues 423-433 of human netrin-1: CPCKDGVTGIT (listed as Homo sapiens)”, for which the “infarct size (infarct area as % of risk area)” value in the experiment on I/R-injured mouse hearts was determined as 16.7±3.0%. In addition, the “NO production, fold vs. control” value in experiment [1] (setting [2]) turned out to be 1.45±0.11 fold.

Source of the values: US10550163B2 (The Regents of the University of California, priority 2014, dated 2020).
